This note sets out measurements from publication PMC8317940, “Strained contacts with the cell membrane may influence ligand affinity to G protein coupled receptors: a case of free fatty acid receptor 1 agonists” (Journal of Enzyme Inhibition and Medicinal Chemistry, 2021).

In this assay the target is T1, free fatty acid receptor 1 (FFA1, GPR40) (Homo sapiens, UniProt O14842).
T1 construct: gene FFAR1
Nature of the assay: calcium flux (FLIPR) agonist assay in CHO cells stably expressing human FFA1. It is filed as cell-based. A general note: Calcium assays in cells follow changes in intracellular calcium, usually with a dye or a luminescent sensor.

Molecules are shown by their SMILES.

T1 sequence (O14842 whole entry): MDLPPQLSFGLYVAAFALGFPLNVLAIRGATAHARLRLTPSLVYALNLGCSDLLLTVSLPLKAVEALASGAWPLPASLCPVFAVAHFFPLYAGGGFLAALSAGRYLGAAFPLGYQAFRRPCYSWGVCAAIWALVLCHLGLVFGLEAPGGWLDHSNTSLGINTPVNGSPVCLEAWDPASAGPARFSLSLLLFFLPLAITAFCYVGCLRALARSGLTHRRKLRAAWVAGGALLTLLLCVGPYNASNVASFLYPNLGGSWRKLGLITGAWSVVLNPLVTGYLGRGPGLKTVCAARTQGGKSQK

With `O=C(O)CCc1nnc(C(=O)Nc2ccc(-c3cccc(C(F)(F)F)c3)cc2)s1` [2e, 3-[5-({[3′-(Trifluoromethyl)biphenyl-4-yl]amino}carbonyl)-1,3,4-thiadiazol-2-yl]propanoic acid], the EC50 was found to be 1.86 µM.
The same measure for `O=C(O)CCc1nnc(C(=O)Nc2cccc(-c3ccc(Cl)cc3)c2)s1` [2a, 3-(5-{[(4′-Chlorobiphenyl-3-yl)amino]carbonyl}-1,3,4-thiadiazol-2-yl)propanoic acid]: 1.32 µM.
Consider `COc1cccc(-c2ccc(NC(=O)c3nnc(CCC(=O)O)s3)cc2)c1` [2g, 3-(5-{[(3′-Methoxybiphenyl-4-yl)amino]carbonyl}-1,3,4-thiadiazol-2-yl)propanoic acid], for which the EC50 stood at 1.35 µM.
In the case of `O=C(O)CCc1nnc(C(=O)Nc2cccc(-c3ccc(OC(F)(F)F)cc3)c2)s1` [2c, 3-[5-({[4′-(Trifluoromethoxy)biphenyl-3-yl]amino}carbonyl)-1,3,4-thiadiazol-2-yl]propanoic acid], the EC50 turned out to be 1.25 µM.

What is called EC50 is the concentration that produces a half-maximal response.
